The values that follow come from patent publication US7365066B2, “Pyrazolopyridine derivatives as pharmaceutical agents” (Eli Lilly and Company, priority 2002, dated 2008).

The subject of assay [1] is TGF-β dependent luciferase production (p3TP-Lux reporter, Mv1Lu C1 cells). Nature of the assay: Mv1Lu p3TP-Lux assay. Type of assay: cell-based. Particulars: 10 pM TGF-β1, 16-20 hrs, read-out: IC50, inhibition of TGF-beta dependent luciferase production. The text has this: A stable Mv1Lu clone (C1) containing the p3TP-Lux reporter was created by standard transfection and puromycin selection protocols. This stable clone was used to screen the example compounds for their ability to inhibit TGF-β dependent luciferase production as briefly described below: • 1. Plated Mv1Lu C1 cells in Wallac™ Black Isoplates. • 2. Allowed cells to adhere overnight. • 3. Removed media and replaced with 0.5% FBS DMEM media. • 4. Added the compound dilution series in 0.5% FBS/DMEM containing 1% DMSO such that the final compound concentration ranged from 20 uM to 0.1 nM and the final DMSO concentration was 0.2%. • 5. Incubated at 37° C./5% CO2 for 2 hrs. • 6. Added 0.5% FBS/DMEM as control or TGF-β1 diluted. in 0.5% FBS/DMEM (final concentration of 10 pM) to the −/+TGF-β wells respectively. • 7. Incubated for 16-20 hrs. at 37° C./5% CO2. • 8. Removed media and rinsed 1× with PBS. • 9. Removed PBS and lysed the cells with 1× Passive. Lysis Buffer (Promega) at room temperature. • 10. Counted relative luciferase activity on the MicroBeta JET by injecting Luciferase Assay Reagent II (PROMEGA).
The use of the above assay in measuring TGF-β responsive activity is described in Wrana, et al. Cell 71: 1003-1014 (1992).

Assay [2] deals with T1, TGF-beta Type I Receptor Kinase (RIT204D) (Homo sapiens, UniProt P36897, T204D).
T1 construct: The 6×-HIS tagged cytoplasmic kinase domain of each receptor was expressed and purified from Sf9 insect cell lysates; 6xHis; made in house; host or cells: Sf9 insect cells
T1 sequence (P36897 148-503 T204D limits assumed): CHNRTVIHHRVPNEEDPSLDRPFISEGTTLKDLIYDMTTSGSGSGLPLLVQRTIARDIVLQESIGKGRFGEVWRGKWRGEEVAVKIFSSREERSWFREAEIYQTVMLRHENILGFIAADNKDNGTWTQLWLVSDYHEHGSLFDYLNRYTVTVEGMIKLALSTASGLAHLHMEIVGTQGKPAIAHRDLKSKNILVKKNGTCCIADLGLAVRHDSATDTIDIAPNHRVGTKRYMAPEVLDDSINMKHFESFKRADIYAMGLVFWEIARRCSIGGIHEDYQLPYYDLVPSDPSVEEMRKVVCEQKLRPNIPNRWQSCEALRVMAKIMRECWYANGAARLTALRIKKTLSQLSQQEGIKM
In words: TGF-β Type I receptor (RIT204D) in vitro kinase reaction. Type of assay: biochemical. Particulars: RIT204D kinase domain, 4 uM ATP, 30° C. for 1 hr; read-out: IC50, inhibition of TGF-beta Type I Receptor Kinase. The method, then:
(§1) For TGF-β Type I (RIT204D) and Type II (RII WT) Receptor Kinases:
(§2) The 6×-HIS tagged cytoplasmic kinase domain of each receptor was expressed and purified from Sf9 insect cell lysates as briefly described below:
(§3) Cell pellets after 48-72 hrs of infection were lysed in lysis buffer (LB: 50 mM Tris pH 7.5, 150 mM NaCl, 50 mM NaF, 0.5% NP40 with freshly added 20 mM β-mercaptoethanol, 10 mM imidazole, 1 mM PMSF, 1×EDTA-free Complete Protease Inhibitor (Boehringer Mannheim).
(§4) Cell lysates were clarified by centrifugation and 0.45 uM filtered prior to purification by Ni/NTA affinity chromatography (Qiagen).
(§5) Equilibrate with 10 CV of LB, load sample, wash with 10 CV RIPA buffer (50 mM Tris pH 7.5, 150 mM NaCl, 1% NP40, 1 mM EDTA, 0.25% sodium deoxycholate, added fresh 20 mM β-mercaptoethanol, 1 mM PMSF), wash with 10 CV LB, wash with 10 CV 1× KB (50 mM Tris pH 7.5, 150 mM NaCl, 4 mM MgCl2, 1 mM NaF, 2 mM βmercaptoethanol), elute with a linear gradient of 1× KB containing 200 mM Imidazole.
(§6) Both enzymes were approximately 90% pure and had autophosphorylation activity.
(§7) Reactions: 170-200 nM enzyme in 1× KB, compound dilution series in 1× KB/16% DMSO (20 uM to […] final concentration with 4% DMSO final concentration), reactions started by adding ATP mix (4 uM ATP/1 uCi ^33P-γ-ATP final concentrations) in 1× KB.
(§8) Reactions were incubated at 30° C. for 1 hr RIT204D or 40 min for RII WT. Reactions were stopped and quantitated using standard TCA/BSA precipitation onto Millipore FB glass fiber filter plates and by liquid scintillation counting on a MicroBeta JET.

Assay [3] addresses T2, TGF-beta Type II Receptor Kinase (RII WT) (Homo sapiens, UniProt P37173).
T2 construct: The 6×-HIS tagged cytoplasmic kinase domain of each receptor was expressed and purified from Sf9 insect cell lysates; 6xHis; made in house; host or cells: Sf9 insect cells
T2 sequence (P37173 188-567 limits assumed): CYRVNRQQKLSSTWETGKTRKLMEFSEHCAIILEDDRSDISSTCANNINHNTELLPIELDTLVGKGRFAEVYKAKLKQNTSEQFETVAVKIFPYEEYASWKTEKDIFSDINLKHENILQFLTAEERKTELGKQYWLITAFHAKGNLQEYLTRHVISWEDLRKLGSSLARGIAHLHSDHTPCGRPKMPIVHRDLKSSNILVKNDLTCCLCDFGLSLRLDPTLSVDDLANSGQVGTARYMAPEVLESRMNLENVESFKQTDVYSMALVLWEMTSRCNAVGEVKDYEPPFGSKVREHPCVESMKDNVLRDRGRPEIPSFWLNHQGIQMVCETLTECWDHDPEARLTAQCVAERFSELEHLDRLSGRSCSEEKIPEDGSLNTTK
In words: TGF-β Type II receptor (RII WT) in vitro kinase reaction. Type of assay: biochemical. Particulars: RII WT kinase domain, 4 uM ATP, 30° C. for 40 min; read-out: IC50, inhibition of TGF-beta Type II Receptor Kinase. The method, then:
as §1, §2, §3, §4, §5, §6, §7, §8

The target of assay [4] is T3, p38α/SAPK2α (Homo sapiens, UniProt Q16539).
T3 construct: purchased Upstate Biotechnology 14-251
Nature of the assay: p38α in vitro kinase assay. Type of assay: biochemical. Particulars: 5 nM p38α, 62.5 uM EGFR substrate, 100 uM ATP, 30° C. for 40 min. The method, then: Active p38α/SAPK2α was purchased from Upstate Biotechnology (cat#14-251). A known p38α substrate from EGFR was used in the assay (Young, et al. (1997) JBC 272:12116-12121).
Reactions were performed in 1× kinase buffer (25 mM Tris-HCl pH 7.5, 5 mM β-glycerophosphate, 2 mM DTT, 0.1 mM Na3VO4, 10 mM MgCl2, 1 uM Microcystin) with 5 nM p38α, 62.5 uM substrate, 40 uM to 0.2 nM compound dilution series in 1×KB/16% DMSO (final 4% DMSO concentration). Reactions were started by addition of 100 uM ATP (final concentration) with 1 uCi ^33P-γ-ATP in 1×KB and incubated at 30° C. for 40 min. Reactions were stopped with H3PO4 and quantitated on Millipore PH phosphocellulose filter plates by liquid scintillation counting on a MicroBeta JET.

T3 sequence (Q16539 whole entry): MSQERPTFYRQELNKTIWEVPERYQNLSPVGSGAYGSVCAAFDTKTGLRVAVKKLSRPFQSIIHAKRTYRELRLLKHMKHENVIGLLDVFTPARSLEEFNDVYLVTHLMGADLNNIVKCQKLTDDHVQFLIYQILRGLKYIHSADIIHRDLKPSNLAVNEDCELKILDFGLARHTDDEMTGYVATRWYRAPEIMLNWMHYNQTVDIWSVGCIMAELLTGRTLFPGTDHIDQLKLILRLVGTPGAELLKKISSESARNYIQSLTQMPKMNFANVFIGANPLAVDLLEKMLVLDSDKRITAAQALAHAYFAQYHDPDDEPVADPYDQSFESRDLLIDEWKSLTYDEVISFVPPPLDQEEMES

Turning to `CCc1cccc(-c2nn3ccccc3c2-c2ccnc3cc(Cl)c(Cl)cc23)n1` [Example 43, 6,7-Dichloro-4-[2-(6-ethyl-pyridin-2-yl)-pyrazolo[1,5-a]pyridin-3-yl]-quinoline], the half-maximal inhibitory concentration (IC50) in assay [1] came out at 120 nM; in assay [2] it was 152 nM; in assay [3], 3170 nM.

In assay [4], `Cc1cccc(-c2nn3ccccc3c2-c2ccnc3cc(Cl)c(Cl)cc23)n1` [Example 45, 6,7-Dichloro-4-[2-(6-methyl-pyridin-2-yl)-pyrazolo[1,5-a]pyridin-3-yl]-quinoline] returned an IC50 of 390 nM.

As for `CCc1cccc(-c2nn3ccccc3c2-c2ccc(F)c3ccccc23)n1` [Example 47, 2-(6-Ethyl-pyridin-2-yl)-3-(4-fluoro-naphthalen-1-yl)-pyrazolo[1,5-a]pyridine], the IC50 in assay [1] was 100 nM; in assay [2], 175 nM; in assay [3] it was 5100 nM.

On to `c1ccc(-c2nn3ccccc3c2-c2ccncc2)nc1` [Example 53, 3-Pyridin-4-yl-2-pyridin-2-yl-pyrazolo[1,5-a]pyridine], for which the concentration for half-maximal inhibition (IC50) in assay [1] was 487 nM; in assay [2], 806 nM; in assay [3], 20000 nM.

`CCCCc1ccc(-c2nn3ccccc3c2-c2ccnc3ccccc23)nc1` [Example 56, 4-[2-(5-Butyl-pyridin-2-yl)-pyrazolo[1,5-a]pyridin-3-yl]-quinoline]: the IC50 turned out to be 135 nM in assay [1], 102 nM in assay [2] and 377 nM in assay [3].

As to `Cc1cccc(-c2nn3ccccc3c2-c2ccnc3cc(C(=O)NCCN(C)C)ccc23)n1` [Example 78, 4-[2-(6-Methyl-pyridin-2-yl)-pyrazolo[1,5-a]pyridin-3-yl]-quinoline-7-carboxylic acid(2-dimethylamino-ethyl)-amide], in assay [4], 233 nM corresponded to half-maximal inhibition (IC50).

Compound `Cc1cccc(-c2nn3ccccc3c2-c2ccnc3cc(OCCCN(C)C)ccc23)n1` [Example 117, Dimethyl-(3-{4-[2-(6-methyl-pyridin-2-yl)-pyrazolo[1,5-a]pyridin-3-yl]-quinolin-7-yloxy}-propyl)-amine] gave an IC50 in assay [4] of 78 nM.
